{"source": "paper PMC4947684", "about": "“In Vivo and In Vitro Genotoxic and Epigenetic Effects of Two Types of Cola Beverages and Caffeine: A Multiassay Approach” (BioMed Research International, 2016)", "key": {"Drosophila melanogaster [1]": {"system": "Drosophila melanogaster", "test": "Genotoxicity, Drosophila wing spot test (SMART)", "conditions": "[…] H2O2 alone", "experimental": "(§2) Genotoxicity assays were carried out following the wing spot test standard procedure [20]. Briefly, transheterozygous larvae for mwh and flr ^3 genes were obtained by crossing four-day-old virgin flr ^3 females with mwh males in a 2 : 1 ratio. Four days after fertilization, females were allowed to lay eggs in fresh yeast medium (25 g yeast and 4 mL sterile distilled water) for 8 h in order to obtain synchronised larvae. After 72 h, larvae were collected, washed with distilled water, and clustered in groups of 100 individuals. […] Adult flies were collected and stored in 70% ethanol until the wings were removed and mounted on slides using Faure's solution. Mutant spots were assessed in both dorsal and ventral surfaces of the wings in a bright light microscope at 400x magnification. The frequencies of each type of mutant clone per wing (single, large, or twin spot) were compared to the concurrent negative control and analysed applying the binomial Kastenbaum and Bowman Test [36]. Antigenotoxicity tests were performed following the method described by Anter et al. [37]. […] Single and twin spots per wing were also recorded and compared with the concurrent positive control as described before. The recombination percentage was calculated following Valadares et al. [38] procedure and the inhibition percentages (IP) for the combined treatments were calculated from the control-corrected frequencies of clone formation per 10^5 cells, according to Abraham [39]: IP = [(genotoxin alone − combined treatment)/genotoxin alone] × 100."}, "D. melanogaster larvae [2]": {"system": "D. melanogaster larvae", "test": "Antitoxicity assay (combined treatment with […] H2O2)", "experimental": "(§3) Negative (H2O) and positive (0.15 M H2O2) toxicant concurrent controls were also assayed. Test groups consisted of larvae fed with Drosophila Instant Medium (Formula 4–24, Carolina Biological Supply, Burlington, NC) supplemented with the beverage concentrations tested. Emerging adults of all groups were counted and toxicity was determined as the percentage of hatched individuals in each treatment compared with the negative control. Antitoxicity was assessed using the same procedure and experimental concentrations as in toxicity assays, but in combined treatments with 0.15 M H2O2 and comparing the percentage of emerging adults with the positive toxicant control [34]. […] Negative control values were considered as those expected in Chi-square formula used in toxicity assay and positive control values in antitoxicity assays [35]. The same concentrations of toxicity and antitoxicity assays within the same substance were also compared."}, "LINE-1": {"system": "LINE-1", "test": "Methylation status of HL-60 cells (qMSP)", "type": "cell-based, human", "conditions": "HL-60, 5 h, 0.51 mM", "method": "Then, DNA was extracted similarly to previously described DNA fragmentation assay. After that, the DNA was converted with bisulphite (EZ DNA Methylation-Gold™ Kit). Bisulphite-modified DNA was used for fluorescence-based real-time quantitative Methylation-Specific PCR (qMSP) using 5 μM of each forward and reverse primer (Isogen Life Science BV), 2 μL of iTaq™ Universal SYBR® Green Supermix (Bio-Rad, it contains antibody-mediated hot-start iTaq DNA polymerase, dNTPs, MgCl2, SYBR Green I Dye, enhancers, stabilizers, and a blend of passive reference dyes including ROX and fluorescein) and 25 ng of bisulphite converted genomic DNA. PCR conditions included initial denaturalisation at 95°C for 3 minutes and amplification which consisted of 45 cycles at 95°C for 10 seconds, 60°C for 15 seconds, and 72°C for 15 seconds, taking picture at the end of each elongation cycle. After that, melting curve was determined increasing 0.5°C each […] from 60°C to 95°C and taking pictures. QMSP was carried out in 48-well plates in MiniOpticon Real-Time PCR System (MJ Mini Personal Thermal Cycler, Bio-Rad) and were analysed by Bio-Rad CFX Manager 3.1 software. […] Alu-C4 and the target repetitive elements Alu M1, LINE-1, and Sat-α were obtained from Isogen Life Science and their sequences are shown in Table 1. Each sample was analysed in triplicate. The results of each CT were obtained from each qMSP. […]"}, "Drosophila melanogaster [3]": {"system": "Drosophila melanogaster", "test": "Chronic treatments: lifespan and healthspan assays", "type": "in vivo", "conditions": "for Healthspan difference (%) / Mean lifespan difference (%): versus concurrent water control", "method": "We also tested the same compounds and concentrations as in the toxicity/antitoxicity experiments. Lifespan assays were carried out at 25°C according to the procedure described by Fernandez-Bedmar et al.. Briefly, synchronised 72 ± 12-hour-old transheterozygous larvae were washed in distilled water, collected, and transferred in groups of 100 individuals into test vials containing 0.85 g Drosophila Instant Medium and 4 mL of the different concentrations of the compounds to be assayed. Emerged adults from pupae were collected under CO2 anaesthesia and placed in groups of 25 individuals of the same sex into sterile vials containing 0.21 g Drosophila Instant Medium and 1 mL of different concentrations of the compounds to be tested. Flies were chronically treated during all their life. The number of survivors was determined twice a week."}, "D. melanogaster larvae [4]": {"system": "D. melanogaster larvae", "experimental": "as §3"}, "HL-60": {"system": "HL-60", "design": "method as in PMID 1311329", "conditions": "at 5 mM; cited from earlier work"}, "Drosophila melanogaster [5]": {"system": "Drosophila melanogaster", "test": "Antigenotoxicity, Drosophila wing spot test (SMART), combined with H2O2", "conditions": "combined treatment with […] H2O2, mwh/flr3, 0.51 mM", "experimental": "as §2"}, "HL-60 cells [6]": {"system": "HL-60 cells", "test": "DNA fragmentation status (internucleosomal ladder)", "type": "cell-based, human", "conditions": "HL-60, 5 h, any CAF treatment", "method": "The ability of our compounds to induce DNA fragmentation was determined as described by Anter et al.. […] After treatment, genomic DNA was extracted using a commercial kit (Blood Genomic DNA Extraction Mini Spin Kit, […] Biotech, Cordoba, Spain). Subsequently, DNA was incubated overnight with RNase at 37°C and quantified in a spectrophotometer (Nanodrop® ND-1000). Finally, 1200 ng DNA was electrophoresed in a 2% agarose gel for 120 min at 50 V, stained with ethidium bromide, and visualised under UV light. The apoptosis process is recognised by the appearance of internucleosomal DNA fragments that are multiple of 200 base pairs."}, "[7]": {"system": "human breast cancer cells", "design": "method as in PMID 25691730", "conditions": "cited from earlier work"}, "[8]": {"test": "Cytotoxicity assay (trypan blue exclusion)", "type": "cell-based, human", "conditions": "human, HL-60 cells; HL-60, 72 h; read-out: IC50 (cytotoxicity), not reached at highest tested concentration", "method": "(§1) Promyelocytic human leukaemia (HL-60) cells were grown in RPMI-1640 medium (Sigma, R5886) supplemented with heat-inactivated foetal bovine serum (Linus, S01805), L-glutamine 200 mM (Sigma, G7513), and 1x antibiotic-antimycotic solution (Sigma, A5955). Cells were incubated at 37°C in a humidified atmosphere of 5% CO2. Cultures were plated at 2.5 × 10^4 cells/mL density in 10 mL culture bottles and passed every 2 days. The effect of the assayed compounds on cell viability was determined by the trypan blue exclusion test according to our standard procedures. […] After culture, cells were stained with a 1 : 1 volume ratio of trypan blue dye (Sigma, T8154) and counted in a Neubauer chamber at 100x magnification. The survival percentage of each treatment compared with the control was recorded in three independent replicates."}, "HL-60 cells [9]": {"system": "HL-60 cells", "test": "Cytotoxicity assay (trypan blue exclusion)", "type": "cell-based, human", "conditions": "Homo sapiens; HL-60, highest tested concentration 20.4 mM; read-out: Inhibition of cell growth", "method": "as §1"}, "[10]": {"conditions": "mwh/TM3 balancers-heterozygous wings"}}, "note": "Like-named read-outs stand apart in the source and are kept apart here.", "data": [{"smiles": "OO", "note": "[H2O2, hydrogen peroxide]", "values": [{"measurement": "Clones per wings: large simple spots (>2 cells) m = 5", "setting": "Drosophila melanogaster [1]; [10]", "value": "0.013 (1) clones/wing"}, {"measurement": "Clones per wings: small single spots (1-2 cells) m = 2", "setting": "Drosophila melanogaster [1]; [10]", "value": "0.188 (15) clones/wing"}, {"measurement": "Frequency of clone formation per 10^5 cells, observed", "setting": "Drosophila melanogaster [1]; mwh/TM3 wings", "value": 0.819, "unit": "per 10^5 cells"}, {"measurement": "Clones per wings: large simple spots (>2 cells) m = 5", "setting": "Drosophila melanogaster [1]; mwh/flr3 wings", "value": "0.088 (7) clones/wing"}, {"measurement": "Clones per wings: small single spots (1-2 cells) m = 2", "setting": "Drosophila melanogaster [1]; mwh/flr3 wings", "value": "0.313 (25) clones/wing"}, {"measurement": "Clones per wings: total spots m = 2", "setting": "Drosophila melanogaster [1]; mwh/flr3 wings", "value": 0.438, "unit": "clones/wing"}, {"measurement": "Clones per wings: twin spots m = 5", "setting": "Drosophila melanogaster [1]; mwh/flr3 wings", "value": "0.038 (3) clones/wing"}, {"measurement": "Frequency of clone formation per 10^5 cells, control corrected", "setting": "Drosophila melanogaster [1]; mwh/flr3 wings", "value": 0.717, "unit": "per 10^5 cells"}, {"measurement": "Frequency of clone formation per 10^5 cells, observed", "setting": "Drosophila melanogaster [1]; mwh/flr3 wings", "value": 1.795, "unit": "per 10^5 cells"}, {"measurement": "Statistical diagnosis of total spots", "setting": "Drosophila melanogaster [1]; mwh/flr3 wings, versus negative control", "value": "+"}, {"measurement": "Survival (%) positive toxicant control", "setting": "D. melanogaster larvae [2]; […] H2O2 alone", "value": 46.66, "unit": "%"}]}, {"smiles": "Cn1c(=O)c2c(ncn2C)n(C)c1=O", "note": "[CAF, 1,3,7-trimethylpurine-2,6-dione]", "values": [{"measurement": "Methylation status", "setting": "LINE-1", "value": "decrease of methylation status"}, {"measurement": "Healthspan (80th percentile) (days)", "setting": "Drosophila melanogaster [3]; 0.004 mM, mean ± SE", "value": "47 ± 2.65^∗∗ days"}, {"measurement": "Mean lifespan", "setting": "Drosophila melanogaster [3]; 0.004 mM, mean ± SE", "value": "62.88 ± 1.7", "unit": "days"}, {"measurement": "Healthspan difference (%)", "setting": "Drosophila melanogaster [3]; 0.004 mM", "value": 55.73, "unit": "%"}, {"measurement": "Mean lifespan difference (%)", "setting": "Drosophila melanogaster [3]; 0.004 mM", "value": 6.87, "unit": "%"}, {"measurement": "Mean lifespan (days)", "setting": "Drosophila melanogaster [3]; 0.032 mM, mean ± SE", "value": "68.86 ± 2.38^∗∗ days"}, {"measurement": "Healthspan difference (%)", "setting": "Drosophila melanogaster [3]; 0.032 mM", "value": 40.32, "unit": "%"}, {"measurement": "Mean lifespan difference (%)", "setting": "Drosophila melanogaster [3]; 0.032 mM", "value": 17.02, "unit": "%"}, {"measurement": "Mean lifespan (days)", "setting": "Drosophila melanogaster [3]; 0.127 mM, mean ± SE", "value": "70.91 ± 2.99^∗∗∗ days"}, {"measurement": "Healthspan difference (%)", "setting": "Drosophila melanogaster [3]; 0.127 mM", "value": 22.23, "unit": "%"}, {"measurement": "Mean lifespan difference (%)", "setting": "Drosophila melanogaster [3]; 0.127 mM", "value": 20.52, "unit": "%"}, {"measurement": "Mean lifespan", "setting": "Drosophila melanogaster [3]; 0.51 mM, mean ± SE", "value": "61.14 ± 2.07", "unit": "days"}, {"measurement": "Healthspan difference (%)", "setting": "Drosophila melanogaster [3]; 0.51 mM", "value": 26.41, "unit": "%"}, {"measurement": "Mean lifespan difference (%)", "setting": "Drosophila melanogaster [3]; 0.51 mM", "value": 3.91, "unit": "%"}, {"measurement": "Drosophila lifespan increase, on average", "setting": "Drosophila melanogaster [3]; on average", "value": "more than 15%"}, {"measurement": "Survival (%) simple treatment", "setting": "D. melanogaster larvae [4]; 0.004 mM", "value": 100, "unit": "%"}, {"measurement": "Survival (%) simple treatment", "setting": "D. melanogaster larvae [4]; 0.032 mM", "value": 100, "unit": "%"}, {"measurement": "Survival (%) simple treatment", "setting": "D. melanogaster larvae [4]; 0.127 mM", "value": 100, "unit": "%"}, {"measurement": "Survival (%) simple treatment", "setting": "D. melanogaster larvae [4]; 0.51 mM", "value": 100, "unit": "%"}, {"measurement": "Growth inhibition (in words)", "setting": "HL-60", "value": "inhibited HL-60 growth"}, {"measurement": "Clones per wings: large simple spots (>2 cells) m = 5", "setting": "Drosophila melanogaster [5]", "value": "0.125 (10) clones/wing"}, {"measurement": "Clones per wings: small single spots (1-2 cells) m = 2", "setting": "Drosophila melanogaster [5]", "value": "0.325 (26) clones/wing"}, {"measurement": "Clones per wings: total spots m = 2", "setting": "Drosophila melanogaster [5]", "value": 0.45, "unit": "clones/wing"}, {"measurement": "Clones per wings: twin spots m = 5", "setting": "Drosophila melanogaster [5]", "value": 0, "unit": "clones/wing"}, {"measurement": "Frequency of clone formation per 10^5 cells, control corrected", "setting": "Drosophila melanogaster [5]", "value": 0.766, "unit": "per 10^5 cells"}, {"measurement": "Frequency of clone formation per 10^5 cells, observed", "setting": "Drosophila melanogaster [5]", "value": 1.844, "unit": "per 10^5 cells"}, {"measurement": "Ladder pattern of fragmented internucleosomal DNA", "setting": "HL-60 cells [6]", "value": "not observed"}, {"measurement": "IC50", "setting": "[7]", "value": "~5", "unit": "mM"}, {"measurement": "Survival (%) combined treatment", "setting": "D. melanogaster larvae [2]; 0.004 mM + […] hydrogen peroxide", "value": "54^Δ %"}, {"measurement": "Survival (%) combined treatment", "setting": "D. melanogaster larvae [2]; 0.032 mM + […] hydrogen peroxide", "value": "51^Δ %"}, {"measurement": "Survival (%) combined treatment", "setting": "D. melanogaster larvae [2]; 0.127 mM + […] hydrogen peroxide", "value": "54.66^Δ %"}, {"measurement": "Survival (%) combined treatment", "setting": "D. melanogaster larvae [2]; 0.51 mM + […] hydrogen peroxide", "value": "51.33^Δ %"}, {"measurement": "IC50 at 72 h", "setting": "[8]", "value": "> 20.4", "unit": "mM"}, {"measurement": "inhibition at 20400 µM", "setting": "HL-60 cells [9]", "value": "~40", "unit": "%"}]}]}
